Assay results as given in US20110039763A1, “TARGETED ANTIMICROBIAL MOIETIES” (C3 JIAN, INC., priority 2009, published 2011).

What was measured:
microorganisms [1] = test: Peptide activities: targeting/binding, antimicrobial, growth or phenotype altering (Tables 7, 8); type: cell-based; conditions: peptides having multiple activities
Text: In certain embodiments, peptides described herein can have multiple activities. Thus for example, a peptide can have both binding/targeting activity and antimicrobial activity. Such peptides can be used, e.g., in a chimeric construct, for any or all of these properties. Thus, for example, a peptide designated “B” in Table 8 can be used as a targeting peptide. If it is also designated G or M it can also be used for antimicrobial activity.
Table 8. Peptides Having Multiple Activities. B: Targeting/Binding Activity; M: Antimicrobial Activity; G: GROWTH or Phenotype Altering.

microorganisms [2] = test: Morphology, biofilm and growth disrupting peptides (Table 5); type: cell-based; set-up: key: A: Peptide aggregates; B: Less hyphal formation; Clumps; Diffuse clumps and small polyps; F: Diffuse growth; H: Thin; I: Growth inhibition; Microcolony formation; Rippled; Small polyps; Thick; W: Halo formation on top, microlonies on bottom
Text: In certain embodiments peptides that induce alterations in phenotype or other biological activities can also be used as antimicrobial effector moieties.

Row | Substance | Activities (microorganisms [1]) | Organism, effect: C. jeikeium (microorganisms [2]) | Organism, effect: M. luteus (microorganisms [2]) | Organism, effect: MRSA (microorganisms [2]) | Organism, effect: S. epidermidis (microorganisms [2]) | Organism, effect: C. albicans (microorganisms [2]; C. albicans) | Organism, effect: C. jejuni (microorganisms [2]; C. jejuni) | Organism, effect: E. coli (microorganisms [2]; E. coli) | Organism, effect: E. faecalis (microorganisms [2]; E. faecalis) | Organism, effect: S. pneumoniae (microorganisms [2]; S. pneumoniae)
1 | PF-001: peptide having multiple activities (MNNWIIVAQLSVTVINEIIDIMKEKQKGGK; Peptide with targeting and/or antimicrobial activity) | G B | C. jeikeium (D) | M. luteus (C) | MRSA (R) | S. epidermidis (C) | – | – | – | – | –
2 | PF-004: peptide having multiple activities (ARLSKAIIIAVIVVYHLDVRGLF; Peptide with targeting and/or antimicrobial activity) | G B | C. jeikeium (A) | M. luteus (A) | MRSA (R) | S. epidermidis (A) | – | – | – | – | –
3 | PF-012: peptide having multiple activities (WRGPNTEAGGKSANNIVQVGGAPT; Peptide with targeting and/or antimicrobial activity) | G B | C. jeikeium (A) | M. luteus (C) | MRSA (R) | S. epidermidis (S) | – | – | – | – | –
4 | PF-022: peptide having multiple activities (MINELKNKNSGIMNNYVVTKESKL; Peptide with targeting and/or antimicrobial activity) | G B | C. jeikeium (A) | M. luteus (A) | MRSA (R) | S. epidermidis (D) | – | – | – | – | –
5 | PF-030: peptide having multiple activities (MTCHQAPTTTHQSNMA; Peptide with targeting and/or antimicrobial activity) | G B | C. jeikeium (C) | M. luteus (C) | MRSA (R) | S. epidermidis (D) | – | – | – | – | –
6 | PF-042: peptide having multiple activities (LLLSYFRYTGALLQSLF; Peptide with targeting and/or antimicrobial activity) | G B | C. jeikeium (S) | M. luteus (C) | MRSA (R) | S. epidermidis (D) | – | – | – | – | –
7 | PF-057: peptide having multiple activities (TMIVISIPRFEEYMKARHKKWM; Peptide with targeting and/or antimicrobial activity) | G B | C. jeikeium (A) | M. luteus (C) | MRSA (M) | S. epidermidis (D) | C. albicans (A) | C. jejuni (D) | E. coli (M) | E. faecalis (A) | S. pneumoniae (R)
